Results published in ChEMBL document CHEMBL4732114, “Design and structural optimization of novel 2H-benzo[h]chromene derivatives that target AcrB and reverse bacterial multidrug resistance” (Eur J Med Chem, 2021).
In brackets after ≈: the same amount, converted by molar mass.

Tests used:
[1] = molecular target: T1, Multidrug efflux pump subunit AcrB (Escherichia coli (strain K12)) (UniProt P31224); test: Inhibition of AcrB in multidrug-resistant Escherichia coli BW25113 assessed as potentiation of erythromycin-induced antibacterial activity by measuring erythromycin MIC at 128 ug/ml by checkerboard titration method (reference value: 64 ug/ml); settings: dose 128.0 µg/ml
T1 sequence (whole entry): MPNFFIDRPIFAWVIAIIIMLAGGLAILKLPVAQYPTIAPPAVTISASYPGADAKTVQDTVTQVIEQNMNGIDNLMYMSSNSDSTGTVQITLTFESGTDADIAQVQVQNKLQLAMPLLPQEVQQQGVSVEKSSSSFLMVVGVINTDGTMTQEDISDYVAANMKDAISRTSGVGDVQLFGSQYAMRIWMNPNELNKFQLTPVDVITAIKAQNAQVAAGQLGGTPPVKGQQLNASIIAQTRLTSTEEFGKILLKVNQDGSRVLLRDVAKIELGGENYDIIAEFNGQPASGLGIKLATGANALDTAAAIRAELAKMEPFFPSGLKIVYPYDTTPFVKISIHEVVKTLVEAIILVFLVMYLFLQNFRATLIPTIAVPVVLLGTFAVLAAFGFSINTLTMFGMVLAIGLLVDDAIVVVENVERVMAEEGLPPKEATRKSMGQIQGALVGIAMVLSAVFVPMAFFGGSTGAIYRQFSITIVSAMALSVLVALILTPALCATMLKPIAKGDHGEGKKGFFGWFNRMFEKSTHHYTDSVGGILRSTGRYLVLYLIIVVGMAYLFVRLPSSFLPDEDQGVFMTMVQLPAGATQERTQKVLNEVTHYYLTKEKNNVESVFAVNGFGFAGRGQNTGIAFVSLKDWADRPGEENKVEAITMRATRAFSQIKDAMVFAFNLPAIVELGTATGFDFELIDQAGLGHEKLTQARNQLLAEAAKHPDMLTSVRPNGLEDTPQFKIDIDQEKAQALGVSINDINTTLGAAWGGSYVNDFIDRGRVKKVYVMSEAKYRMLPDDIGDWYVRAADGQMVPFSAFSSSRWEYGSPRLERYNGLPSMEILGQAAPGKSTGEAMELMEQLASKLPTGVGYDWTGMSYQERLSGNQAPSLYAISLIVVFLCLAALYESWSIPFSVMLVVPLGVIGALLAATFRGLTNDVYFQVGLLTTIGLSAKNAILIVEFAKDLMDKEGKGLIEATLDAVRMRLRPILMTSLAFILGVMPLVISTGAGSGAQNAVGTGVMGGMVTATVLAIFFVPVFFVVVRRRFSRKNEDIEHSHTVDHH

[2] = molecular target: T1, Multidrug efflux pump subunit AcrB (Escherichia coli (strain K12)); test: Inhibition of AcrB in multidrug-resistant Escherichia coli BW25113 assessed as potentiation of chloramphenicol-induced antibacterial activity by measuring chloramphenicol MIC at 8 ug/ml by checkerboard titration method (reference value: 8 ug/ml); settings: dose 8.0 µg/ml
[3] = molecular target: T1, Multidrug efflux pump subunit AcrB (Escherichia coli (strain K12)); test: Inhibition of AcrB in multidrug-resistant Escherichia coli BW25113 assessed as potentiation of chloramphenicol-induced antibacterial activity by measuring chloramphenicol MIC at 128 ug/ml by checkerboard titration method (reference value: 8 ug/ml); settings: dose 128.0 µg/ml
[4] = molecular target: T1, Multidrug efflux pump subunit AcrB (Escherichia coli (strain K12)); settings: Escherichia coli BW25113; dose 128.0 µg/ml
[5] = molecular target: T1, Multidrug efflux pump subunit AcrB (Escherichia coli (strain K12)); test: Inhibition of AcrB in multidrug-resistant Escherichia coli BW25113 assessed as potentiation of tetraphenylphosphonium-induced antibacterial activity by measuring tetraphenylphosphonium MIC at 16 ug/ml by checkerboard titration method (reference value: 1024 ug/ml); settings: dose 16.0 µg/ml
[6] = molecular target: T1, Multidrug efflux pump subunit AcrB (Escherichia coli (strain K12)); test: Inhibition of AcrB in multidrug-resistant Escherichia coli BW25113 assessed as potentiation of levofloxacin-induced antibacterial activity by measuring levofloxacin MIC at 64 ug/ml by checkerboard titration method (reference value: 0.06 ug/ml); settings: dose 64.0 µg/ml
[7] = molecular target: T1, Multidrug efflux pump subunit AcrB (Escherichia coli (strain K12)); test: Inhibition of AcrB in multidrug-resistant Escherichia coli BW25113 assessed as potentiation of tetraphenylphosphonium-induced antibacterial activity by measuring tetraphenylphosphonium MIC at 64 ug/ml by checkerboard titration method (reference value: 1024 ug/ml); settings: dose 64.0 µg/ml
[8] = molecular target: T1, Multidrug efflux pump subunit AcrB (Escherichia coli (strain K12)); settings: Escherichia coli BW25113; dose 8.0 µg/ml
[9] = molecular target: T1, Multidrug efflux pump subunit AcrB (Escherichia coli (strain K12)); test: Inhibition of AcrB in multidrug-resistant Escherichia coli BW25113 assessed as potentiation of tetraphenylphosphonium-induced antibacterial activity by measuring tetraphenylphosphonium MIC at 8 ug/ml by checkerboard titration method (reference value: 1024 ug/ml); settings: dose 8.0 µg/ml
[10] = molecular target: T1, Multidrug efflux pump subunit AcrB (Escherichia coli (strain K12)); test: Inhibition of AcrB in multidrug-resistant Escherichia coli BW25113 assessed as potentiation of levofloxacin-induced antibacterial activity by measuring levofloxacin MIC at 32 ug/ml by checkerboard titration method (reference value: 0.06 ug/ml); settings: dose 32.0 µg/ml
[11] = molecular target: T1, Multidrug efflux pump subunit AcrB (Escherichia coli (strain K12)); test: Inhibition of AcrB in multidrug-resistant Escherichia coli BW25113 assessed as potentiation of tetraphenylphosphonium-induced antibacterial activity by measuring tetraphenylphosphonium MIC at 32 ug/ml by checkerboard titration method (reference value: 1024 ug/ml); settings: dose 32.0 µg/ml
[12] = molecular target: T1, Multidrug efflux pump subunit AcrB (Escherichia coli (strain K12)); settings: Escherichia coli BW25113; dose 64.0 µg/ml
[13] = molecular target: T1, Multidrug efflux pump subunit AcrB (Escherichia coli (strain K12)); test: Inhibition of AcrB in multidrug-resistant Escherichia coli BW25113 assessed as potentiation of chloramphenicol-induced antibacterial activity by measuring chloramphenicol MIC at 64 ug/ml by checkerboard titration method (reference value: 8 ug/ml); settings: dose 64.0 µg/ml
[14] = molecular target: T1, Multidrug efflux pump subunit AcrB (Escherichia coli (strain K12)); test: Inhibition of AcrB in multidrug-resistant Escherichia coli BW25113 assessed as potentiation of levofloxacin-induced antibacterial activity by measuring levofloxacin MIC at 128 ug/ml by checkerboard titration method (reference value: 0.06 ug/ml); settings: dose 128.0 µg/ml
[15] = molecular target: T1, Multidrug efflux pump subunit AcrB (Escherichia coli (strain K12)); test: Inhibition of AcrB in multidrug-resistant Escherichia coli BW25113 assessed as potentiation of chloramphenicol-induced antibacterial activity by measuring chloramphenicol MIC at 32 ug/ml by checkerboard titration method (reference value: 8 ug/ml); settings: dose 32.0 µg/ml
[16] = molecular target: T1, Multidrug efflux pump subunit AcrB (Escherichia coli (strain K12)); test: Inhibition of AcrB in multidrug-resistant Escherichia coli BW25113 assessed as potentiation of chloramphenicol-induced antibacterial activity by measuring chloramphenicol MIC at 16 ug/ml by checkerboard titration method (reference value: 8 ug/ml); settings: dose 16.0 µg/ml

SMILES	MIC [1] [µg/mL]	MIC [2] [µg/mL]	MIC [3] [µg/mL]	MIC [4] [µg/mL]	MIC [5] [µg/mL]	MIC [6] [µg/mL]	MIC [7] [µg/mL]	MIC [8] [µg/mL]	MIC [9] [µg/mL]	MIC [10] [µg/mL]	MIC [11] [µg/mL]	MIC [12] [µg/mL]	MIC [13] [µg/mL]	MIC [14] [µg/mL]	MIC [15] [µg/mL]	MIC [16] [µg/mL]
C=CC(=O)Nc1ccc(COc2cccc3c4c(c(Cn5cnnn5)cc23)CCC(C)(C)O4)cc1	32	8	4	16 (≈ 34.1 µM)	1020	0.06	1020	16 (≈ 34.1 µM)	1020	0.06	1020	16 (≈ 34.1 µM)	4	0.06	4	8
CNC(=O)c1ccc(COc2cccc3c4c(c(Cn5cnnn5)cc23)CCC(C)(C)O4)cc1	32	8	4	16 (≈ 35 µM)	1020	0.06	1020	16 (≈ 35 µM)	1020	0.06	1020	16 (≈ 35 µM)	4	0.06	8	8
Cc1ccccc1COc1cccc2c3c(c(-c4nnco4)cc12)CCC(C)(C)O3	16	8	8	16 (≈ 40 µM)	512	0.06	512	16 (≈ 40 µM)	512	0.06	512	16 (≈ 40 µM)	8	0.06	8	8
CC1CN(C(=O)c2cc3c(OCc4c(Cl)cccc4Cl)cccc3c3c2CCC(C)(C)O3)CC(C)O1 (stereo unspecified)	64	8	8	16 (≈ 30.3 µM)	1020	0.03	1020	16 (≈ 30.3 µM)	1020	0.03	1020	16 (≈ 30.3 µM)	8	0.03	8	8
CC1(C)CCc2c(-c3nnco3)cc3c(OCc4ccc([N+](=O)[O-])cc4)cccc3c2O1	32	8	4	16 (≈ 37.1 µM)	1020	0.06	1020	16 (≈ 37.1 µM)	1020	0.06	1020	16 (≈ 37.1 µM)	8	0.06	8	8
CC1(C)CCc2c(Cn3cnnn3)cc3c(OCc4ccccc4)cccc3c2O1	64	8	4	16 (≈ 40 µM)	1020	0.06	1020	16 (≈ 40 µM)	1020	0.06	1020	16 (≈ 40 µM)	4	0.03	8	8
